Measured values reported in US10294202B2, “Pyrrolidinones as herbicides” (FMC Corporation, priority 2013, dated 2019).

What was measured:
barnyardgrass = experiment: Test A pre-/postemergence herbicide test; format: in vivo, Echinochloa crus-galli
Method in brief: (§1)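 Approximately 10 days after treatment in the greenhouse, plants were compared with untreated controls and given a 0–100 visual injury rating. Applications: preemergence directed soil spray; postemergence on 2–10 cm plants at the one- to two-leaf stage.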

kochia = experiment: Test A pre-/postemergence herbicide test; format: in vivo, Kochia scoparia
Source text: (§2) Seeds of plant species selected from bamyardgrass (Echinochloa crus-galli), kochia (Kochia scoparia), ragweed (common ragweed, Ambrosia elatior), ryegrass, Italian (Italian ryegrass, Lolium multiflorum), crabgrass, large (large crabgrass Digitaria sanguinalis), giant foxtail (Setaria faberii), morningglory (Ipomoea spp.), pigweed (Amaranthus retroflexus), velvetleaf (Abutilon theophrasti), wheat (Triticum aestivum), and corn (Zea mays) were planted into a blend of loam soil and sand and treated preemergence with a directed soil spray using test chemicals formulated in a non-phytotoxic solvent mixture which included a surfactant. At the same time, plants selected from these crop and weed species and also blackgrass (Alopecurus myosuroides), and galium (catchweed bedstraw, Galium aparine) were planted in pots containing the same blend of loam soil and sand and treated with postemergence applications of test chemicals formulated in the same manner. Plants ranged in height from 2 to 10 cm and were in the one- to two-leaf stage for the postemergence treatment. Treated plants and untreated controls were maintained in a greenhouse for approximately 10 days, after which time all treated plants were compared to untreated controls and visually evaluated for injury. Plant response ratings, summarized in Table A, are based on a 0 to 100 scale where 0 is no effect and 100 is complete control. A dash (-) response means no test result.

ragweed = experiment: Test A pre-/postemergence herbicide test; format: in vivo, Ambrosia elatior
Source text: as §2

ryegrass, Italian = experiment: Test A pre-/postemergence herbicide test; format: in vivo, Lolium multiflorum
Source text: as §2

giant foxtail = experiment: Test A pre-/postemergence herbicide test; format: in vivo, Setaria faberii
Method in brief: as §1

pigweed = experiment: Test A pre-/postemergence herbicide test; format: in vivo, Amaranthus retroflexus
Method in brief: as §1

wheat = experiment: Test A pre-/postemergence herbicide test; format: in vivo, Triticum aestivum; details: Postemergence; for Plant response rating, Wheat: 125 g ai/ha; for Wheat plant response rating (0 to 100 scale, 0 is no effect, 100 is complete control): 500 g ai/ha
Method in brief: as §1

corn = experiment: Test A pre-/postemergence herbicide test; format: in vivo, Zea mays; details: Postemergence
Method in brief: as §1

blackgrass = experiment: Test A postemergence herbicide test; format: in vivo, Alopecurus myosuroides
Method in brief: (§3)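 Visual injury rating, 0 (no effect) to 100 (complete control), versus untreated controls ~10 days after treatment. Postemergence spray applied at one- to two-leaf stage, plants 2–10 cm tall, potted in loam soil/sand. Greenhouse-held.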

galium = experiment: Test A postemergence herbicide test; format: in vivo, Galium aparine; details: for Plant response rating, Galium: 125 g ai/ha; for Galium plant response rating (0 to 100 scale, 0 is no effect, 100 is complete control): 500 g ai/ha
Method in brief: as §3

[1] = 125 g ai/ha, visual rating, 0 to 100 scale, 0 no effect, 100 complete control, approximately 10 days, preemergence
[2] = Postemergence, 125 g ai/ha, 0 to 100 scale, 0 is no effect, 100 is complete control
[3] = preemergence, 500 g ai/ha, 0 to 100 scale, 0 is no effect and 100 is complete control
[4] = 0 to 100 scale, 0 is no effect, 100 is complete control
[5] = 125 g ai/ha, 0 to 100 scale, 0 is no effect, 100 is complete control
[6] = Postemergence, 125 g ai/ha, visual rating on 0 to 100 scale (0 no effect, 100 complete control), approx. 10 days
[7] = Postemergence, 500 g ai/ha, 0 to 100 scale (0 no effect, 100 complete control)
[8] = Preemergence, 125 g ai/ha, 0 to 100 scale where 0 is no effect and 100 is complete control
[9] = Preemergence, 500 g ai/ha, visual rating on 0 to 100 scale (0 no effect, 100 complete control)
[10] = visual rating on 0 to 100 scale (0 no effect, 100 complete control), approx. 10 days
[11] = 125 g ai/ha, visual rating on 0 to 100 scale (0 no effect, 100 complete control), approx. 10 days
[12] = 500 g ai/ha, 0 to 100 scale (0 no effect, 100 complete control)

SMILES: O=C1NCC(c2ccc(OC(F)(F)C(F)F)cc2)C1C(=O)Nc1ccc(F)c(F)c1F (racemic) [Compound 174]
- Plant response rating, Barnyardgrass (barnyardgrass; [1]): 0
- Plant response rating, Barnyardgrass (barnyardgrass; [2]): 0
- Barnyardgrass plant response rating (0 to 100 scale, 0 is no effect, 100 is complete control) (barnyardgrass; Postemergence, 500 g ai/ha): 20
- Plant response rating, Barnyardgrass (barnyardgrass; [3]): 20
- Plant response rating, Kochia (kochia; [1]): 0
- Plant response rating, Kochia (kochia; [2]): 0
- Kochia plant response rating (0 to 100 scale, 0 is no effect, 100 is complete control) (kochia; Postemergence, 500 g ai/ha): 0
- Plant response rating, Kochia (kochia; [3]): 20
- Plant response rating, Ragweed (ragweed; [1]): 0
- Plant response rating, Ragweed (ragweed; [2]): 0
- Ragweed plant response rating (0 to 100 scale, 0 is no effect, 100 is complete control) (ragweed; Postemergence, 500 g ai/ha): 0
- Plant response rating, Ragweed (ragweed; [3]): 0
- Plant response rating, Ryegrass, Italian (ryegrass, Italian; [1]): 0
- Plant response rating, Ryegrass, Italian (ryegrass, Italian; [2]): 0
- Ryegrass, Italian plant response rating (0 to 100 scale, 0 is no effect, 100 is complete control) (ryegrass, Italian; Postemergence, 500 g ai/ha): 0
- Plant response rating, Ryegrass, Italian (ryegrass, Italian; [3]): 0
- Plant response rating, Foxtail, Giant (giant foxtail; [1]): 30
- Plant response rating, Foxtail, Giant (giant foxtail; [2]): 20
- Foxtail, Giant plant response rating (0 to 100 scale, 0 is no effect, 100 is complete control) (giant foxtail; Postemergence, 500 g ai/ha): 30
- Plant response rating, Foxtail, Giant (giant foxtail; [3]): 50
- Plant response rating, Pigweed (pigweed; [1]): 0
- Plant response rating, Pigweed (pigweed; [2]): 0
- Pigweed plant response rating (0 to 100 scale, 0 is no effect, 100 is complete control) (pigweed; Postemergence, 500 g ai/ha): 0
- Plant response rating, Pigweed (pigweed; [3]): 0
- Plant response rating, Wheat (wheat; [4]): 0
- Wheat plant response rating (0 to 100 scale, 0 is no effect, 100 is complete control) (wheat): 0
- Plant response rating, Corn (corn; [5]): 0
- Corn plant response rating (0 to 100 scale, 0 is no effect, 100 is complete control) (corn; 500 g ai/ha): 0
- Plant response rating, Blackgrass (blackgrass; [5]): 0
- Blackgrass plant response rating (0 to 100 scale, 0 is no effect, 100 is complete control) (blackgrass; 500 g ai/ha): 0
- Plant response rating, Galium (galium; [4]): 0
- Galium plant response rating (0 to 100 scale, 0 is no effect, 100 is complete control) (galium): 0

SMILES: Cc1ccc(F)c(NC(=O)C2C(=O)NCC2c2cccc(C(F)(F)F)c2)c1 (racemic) [Compound 183]
- Plant response rating, Barnyardgrass (barnyardgrass; [1]): 0
- Plant response rating, Barnyardgrass (barnyardgrass; [2]): 0
- Barnyardgrass plant response rating (0 to 100 scale, 0 is no effect, 100 is complete control) (barnyardgrass; Postemergence, 500 g ai/ha): 0
- Plant response rating, Barnyardgrass (barnyardgrass; [3]): 0
- Plant response rating, Kochia (kochia; [1]): 0
- Plant response rating, Kochia (kochia; [2]): 0
- Kochia plant response rating (0 to 100 scale, 0 is no effect, 100 is complete control) (kochia; Postemergence, 500 g ai/ha): 0
- Plant response rating, Kochia (kochia; [3]): 0
- Plant response rating, Ragweed (ragweed; [1]): 0
- Plant response rating, Ragweed (ragweed; [2]): 0
- Ragweed plant response rating (0 to 100 scale, 0 is no effect, 100 is complete control) (ragweed; Postemergence, 500 g ai/ha): 0
- Plant response rating, Ragweed (ragweed; [3]): 0
- Plant response rating, Ryegrass, Italian (ryegrass, Italian; [1]): 0
- Plant response rating, Ryegrass, Italian (ryegrass, Italian; [2]): 0
- Ryegrass, Italian plant response rating (0 to 100 scale, 0 is no effect, 100 is complete control) (ryegrass, Italian; Postemergence, 500 g ai/ha): 0
- Plant response rating, Ryegrass, Italian (ryegrass, Italian; [3]): 0
- Plant response rating, Foxtail, Giant (giant foxtail; [1]): 0
- Plant response rating, Foxtail, Giant (giant foxtail; [2]): 0
- Foxtail, Giant plant response rating (0 to 100 scale, 0 is no effect, 100 is complete control) (giant foxtail; Postemergence, 500 g ai/ha): 0
- Plant response rating, Foxtail, Giant (giant foxtail; [3]): 0
- Plant response rating, Pigweed (pigweed; [1]): 0
- Plant response rating, Pigweed (pigweed; [2]): 0
- Pigweed plant response rating (0 to 100 scale, 0 is no effect, 100 is complete control) (pigweed; Postemergence, 500 g ai/ha): 0
- Plant response rating, Pigweed (pigweed; [3]): 0
- Plant response rating, Wheat (wheat; [4]): 0
- Wheat plant response rating (0 to 100 scale, 0 is no effect, 100 is complete control) (wheat): 0
- Plant response rating, Corn (corn; [5]): 0
- Corn plant response rating (0 to 100 scale, 0 is no effect, 100 is complete control) (corn; 500 g ai/ha): 0
- Plant response rating, Blackgrass (blackgrass; [5]): 0
- Blackgrass plant response rating (0 to 100 scale, 0 is no effect, 100 is complete control) (blackgrass; 500 g ai/ha): 0
- Plant response rating, Galium (galium; [4]): 0
- Galium plant response rating (0 to 100 scale, 0 is no effect, 100 is complete control) (galium): 0

SMILES: Cc1cc(NC(=O)C2C(=O)NCC2c2cccc(C(F)(F)F)c2)ccc1F (racemic) [Compound 185]
- Plant response rating, Barnyardgrass (barnyardgrass; [1]): 40
- Plant response rating, Barnyardgrass (barnyardgrass; [2]): 40
- Barnyardgrass plant response rating (0 to 100 scale, 0 is no effect, 100 is complete control) (barnyardgrass; Postemergence, 500 g ai/ha): 80
- Plant response rating, Barnyardgrass (barnyardgrass; [3]): 70
- Plant response rating, Kochia (kochia; [1]): 0
- Plant response rating, Kochia (kochia; [2]): 0
- Kochia plant response rating (0 to 100 scale, 0 is no effect, 100 is complete control) (kochia; Postemergence, 500 g ai/ha): 0
- Plant response rating, Kochia (kochia; [3]): 40
- Plant response rating, Ragweed (ragweed; [1]): 0
- Plant response rating, Ragweed (ragweed; [2]): 0
- Ragweed plant response rating (0 to 100 scale, 0 is no effect, 100 is complete control) (ragweed; Postemergence, 500 g ai/ha): 0
- Plant response rating, Ragweed (ragweed; [3]): 0
- Plant response rating, Ryegrass, Italian (ryegrass, Italian; [1]): 0
- Plant response rating, Ryegrass, Italian (ryegrass, Italian; [2]): 0
- Ryegrass, Italian plant response rating (0 to 100 scale, 0 is no effect, 100 is complete control) (ryegrass, Italian; Postemergence, 500 g ai/ha): 0
- Plant response rating, Ryegrass, Italian (ryegrass, Italian; [3]): 20
- Plant response rating, Foxtail, Giant (giant foxtail; [1]): 70
- Plant response rating, Foxtail, Giant (giant foxtail; [2]): 20
- Foxtail, Giant plant response rating (0 to 100 scale, 0 is no effect, 100 is complete control) (giant foxtail; Postemergence, 500 g ai/ha): 80
- Plant response rating, Foxtail, Giant (giant foxtail; [3]): 90
- Plant response rating, Pigweed (pigweed; [1]): 0
- Plant response rating, Pigweed (pigweed; [2]): 0
- Pigweed plant response rating (0 to 100 scale, 0 is no effect, 100 is complete control) (pigweed; Postemergence, 500 g ai/ha): 0
- Plant response rating, Pigweed (pigweed; [3]): 20
- Plant response rating, Wheat (wheat; [4]): 0
- Wheat plant response rating (0 to 100 scale, 0 is no effect, 100 is complete control) (wheat): 20
- Plant response rating, Corn (corn; [5]): 0
- Corn plant response rating (0 to 100 scale, 0 is no effect, 100 is complete control) (corn; 500 g ai/ha): 20
- Plant response rating, Blackgrass (blackgrass; [5]): 0
- Blackgrass plant response rating (0 to 100 scale, 0 is no effect, 100 is complete control) (blackgrass; 500 g ai/ha): 20
- Plant response rating, Galium (galium; [4]): 0
- Galium plant response rating (0 to 100 scale, 0 is no effect, 100 is complete control) (galium): 0

SMILES: CC(C)(C)c1cccc(C2CNC(=O)C2C(=O)Nc2ccccc2F)c1 (centres unmarked) [Compound 347]
- Plant response rating, Barnyardgrass (barnyardgrass; [6]): 50
- Plant response rating, Barnyardgrass (barnyardgrass; [7]): 50
- Plant response rating, Barnyardgrass (barnyardgrass; [8]): 50
- Barnyardgrass plant response rating (barnyardgrass; [9]): 90
- Plant response rating, Kochia (kochia; [6]): 0
- Plant response rating, Kochia (kochia; [8]): 0
- Kochia plant response rating (kochia; [9]): 0
- Plant response rating, Ragweed (ragweed; [6]): 0
- Plant response rating, Ragweed (ragweed; [8]): 0
- Ragweed plant response rating (ragweed; [9]): 0
- Plant response rating, Ryegrass, Italian (ryegrass, Italian; [6]): 0
- Plant response rating, Ryegrass, Italian (ryegrass, Italian; [8]): 0
- Ryegrass, Italian plant response rating (ryegrass, Italian; [9]): 0
- Plant response rating, Foxtail, Giant (giant foxtail; [6]): 20
- Plant response rating, Foxtail, Giant (giant foxtail; [7]): 20
- Plant response rating, Foxtail, Giant (giant foxtail; [8]): 20
- Foxtail, Giant plant response rating (giant foxtail; [9]): 40
- Plant response rating, Pigweed (pigweed; [6]): 0
- Plant response rating, Pigweed (pigweed; [8]): 0
- Pigweed plant response rating (pigweed; [9]): 0
- Plant response rating, Wheat (wheat; [10]): 0
- Plant response rating, Corn (corn; [11]): 0
- Plant response rating, Corn (corn; [12]): 0
- Plant response rating, Blackgrass (blackgrass; [11]): 0
- Plant response rating, Blackgrass (blackgrass; [12]): 0
- Plant response rating, Galium (galium; [10]): 0
